Test results taken from patent US20180303777A1, “Hyaluronate Compositions” (Cypress Pharmaceuticals, Inc., priority 2007, published 2018).

Test system: eczema
Assay: Treatment of eczema in a patient
Format: in vivo, human
Conditions: topical to the most gravely affected areas, before the composition
Text: A patient with eczema visited a pediatrician. […] The patient was prescribed desoximatasone for topical administration to the most gravely affected areas. […] Subsequently, the pediatrician provided the patient's parent with an amount of the exemplary composition as described in Example 3 in a suitable container-closure system, for daily administration to the patient.

With `C[C@@H]1C[C@H]2[C@@H]3CCC4=CC(=O)C=C[C@]4(C)[C@@]3(F)[C@@H](O)C[C@]2(C)[C@H]1C(=O)CO` [desoximatasone] as the compound, how does the “results of topical treatment of eczema” value read?
The value was “not satisfactory”.
